In patent US20060205642A1, “Oral methods of treatment using proANF peptides” (priority 2005, published 2006):
Entries after “also recorded” stand apart in the source; their conditions may differ.

Experiments:
[1] = Infusion into human subjects with Class III NYHA congestive heart failure; type: in vivo, humans; settings: for enhancement of sodium excretion: CHF subjects, 100 ng/kg body weight/min for 60 minutes
Method: Human proANF's 1-30, 31-67, 79-98, and 99-126 (i.e., ANF) were infused into human subjects with Class III New York Heart Association congestive heart failure (CHF). An identical protocol to that used in example V where these peptides were infused into healthy human subjects was utilized. (See Attachment C and F for a detailed description of this protocol). The human subjects with congestive heart failure received an identical dose (0.1 μg/kg body wt/minute for 60 minutes) that the healthy human subjects received. […] This striking urine output secondary to proANF 31-67 was significant at P<0.0001 compared to the pre-infusion output of the congestive heart failure subjects (n=6).

[2] = system: renal medullary Na+-K+-ATPase; assay: Inhibition of renal medullary Na+-K+-ATPase activity (FIG. 9); type: biochemical; settings: for inhibition of renal medullary Na+-K+-ATPase activity: 10^-11 M, n=6, ANOVA
Excerpt: FIG. 9. Inhibition of renal medullary Na+-K+-ATPase activity by proANF 79-98 (kaliuretic peptide), proANF 1-30 (long acting natriuretic peptide), proANF 31-67 (vessel dilator), and angiotensin II at their […] concentrations.

[3] = Infusion into healthy human subjects; type: in vivo; settings: healthy humans; for potassium excretion: 100 ng/kg body wt; for increase in urine volume (in words): 100 ng/kg body wt per minute for 1 hour i.v., n=6, ANOVA; for sodium excretion (in words): 100 ng/kg body wt per minute for 60 minutes, vs baseline; for systolic and diastolic blood pressures: 100 ng/kg body wt per minute i.v. for 60 min, n=6
Method: Infusion of these peptides into healthy human subjects was performed as follows: Human pro-ANF 1-30, pro-ANF 31-67, and pro-ANF 79-98, and hANF (i.e., pro-ANF 99-126, were synthesized by Peninsula Laboratories (Belmont, Calif.). High pressure liquid chromatography (HPLC) analysis was performed on a sample of each of the four peptides to ensure purity. The peptides were dissolved in a sterile 0.9% saline solution to a concentration of 100 μg/ml and dispensed in 2 and 5 ml aliquots into sealed sterile vials. At the time of dispensing, randomly selected vials were tested for pyrogens and sterility. Prior to labeling the vials, the actual peptide content of the dispensed solution were determined by direct radioimmunoassay to account for any possible absorption of the respective peptides to the walls of the vials. All vials were then stored at −80° C. until thawed for individual study.
Normal healthy subjects were chosen on the basis of age (between 20 and 50 years), physical examination and biochemical screenings. The subjects consumed their normal diets prior to testing. The subjects fasted overnight and were tested in the morning in the seated position. Intravenous catheters were placed bilaterally for the administration of pro-hANF 1-30, pro-hANF 31-67, pro-hANF 79-98 and hANF (pro-hANF 99-126) and for blood sampling. After completion of a 45-minute equilibration period, there were three […] phases of the study: baseline, experimental infusion (60 minutes) and recovery (3 hours). The baseline phase consisted of two 30 minute urine collection periods, the experimental phase consisted of three 20 minute urine and plasma collection periods, and the recovery phase consisted of two 30 minute urine and plasma collection periods each hour for three hours post-infusion. Urine output was replaced on a milliliter per milliliter basis throughout the study by administering oral water or orange juice. Urine samples were obtained by voiding at the designated collection periods.
The 36 subjects were divided into 6 groups. One group (i.e., the control group) received a placebo infusion of 0.9% sodium chloride during the experimental infusion phase. […] The four remaining groups of six subjects each received human pro-hANF 1-30, pro-hANF 31-67, pro-hANF 79-98 and HANF. The four groups received the peptides by continuous infusion at the rate of 0.1 μg/kg per minute. The volume administered per hour during the experimental infusion phase was 10 ml for all four peptides and the placebo. All infusions were given by a constant-rate infusion pump, with the final concentrations of prohANFs adjusted for the subjects' body weight. The subjects heart rate and cuff blood pressure were taken at 5 minute intervals throughout the study. The excreted urine was analyzed for sodium concentration.

[4] = system: porcine aortas; assay: Vasodilation of porcine aortic strips preconstricted with 0.3 micromolar phenylephrine
Method: 30 Kg pigs are sacrificed, and aortic strips are harvested. The strips are attached to F-60 transducer (Narco-BioSystems, Houston, Tex.) and attached to a physiography (Narco-BioSystems) while being submerged in a muscle tissue bath comprising a Krebs Ringer solution at 37° C., with 95% O2-5% CO2, bubbled through the bath. Percentage vasodilation is measured versus time after preconstriction with 0.3 micromolar phenylephrine. […] (Vesely et al., Biochem. Biophys. Res. Commun. 148:1540-1548, 1987).

[5] = system: prostaglandin E2 (PGE2) synthesis; assay: Prostaglandin E2 synthesis (FIG. 8); type: biochemical; settings: n=6, ANOVA and Duncan's MRT
[6] = Rat clearance model (diuresis and salt excretion); type: in vivo, Munich-Wistar rats; settings: for FENa, fractional excretion of sodium / UNa, urinary sodium / UNaV, urinary sodium excretion rate / V, urine flow rate: means ± SE
Method: The same three peptides and ANF from Example I are tested using the rat clearance model. Six control rats and six experimental Munich-Wistar rats, each weighing 150-200 grams, are used for each peptide, with catheters being placed in both jugular veins and in the femoral artery. The ureters are cannulated for simultaneous urine collections with femoral artery blood collections.
After inserting the catheters, a stabilization of one hour is allowed. A 10 μg/kg bolus of each of the respective human sequences of the peptides is given via the jugular vein to six experimental rats followed by a sustaining infusion of 0.1 μg/kg/min for 60 minutes. Blood and urine samples are collected at 20 minute intervals during this 60 minute infusion. In both the control and experimental animals, hematocrits and plasma sodium values remained at the same levels pre- and post-infusion while blood pressure decreased with each of these peptides (see Attachment B).

[7] = system: particulate guanylate cyclase; assay: Particulate guanylate cyclase activity in the kidney; type: biochemical; settings: 1 μM; whole kidney homogenates, renal cortical and medullary membranes, isolated distal nephrons
Method: Testing is also carried out to determine biologic effects of these peptides by measuring their effects on particulate guanylate activity in the kidney.

[8] = system: particulate guanylate cyclase; assay: Cyclic GMP / particulate guanylate cyclase activation in cultured smooth muscle cells and porcine aorta; type: cell-based; settings: for concentration of maximal activation of guanylate cyclase activity / EC50: porcine aorta and isolated smooth muscle cells; for EC50: read-out: half maximal activation (ED5o) of guanylate cyclase
[9] = molecular target: particulate guanylate cyclase of porcine aorta and cultured smooth muscle cells (porcine)
[10] = A, control period (before peptide)
[11] = B, first 60-minute experiment period, 10 μg/kg bolus then 0.1 μg/kg/min via jugular vein
[12] = B, first 60-minute experiment period, 10 μg/kg bolus then 0.1 μg/kg/min
[13] = C, second 60-minute experimental period, 10 μg/kg bolus then 0.1 μg/kg/min
[14] = C, second 60-minute experimental period

CC[C@H](C)[C@@H]1NC(=O)[C@H](CCCNC(=N)N)NC(=O)[C@H](CC(=O)O)NC(=O)[C@H](CCSC)NC(=O)[C@H](CCCNC(=N)N)NC(=O)CNC(=O)CNC(=O)[C@H](Cc2ccccc2)NC(=O)[C@@H](NC(=O)[C@H](CO)NC(=O)[C@H](CO)NC(=O)[C@H](CCCNC(=N)N)NC(=O)[C@H](CCCNC(=N)N)NC(=O)[C@H](CC(C)C)NC(=O)[C@@H](N)CO)CSSC[C@@H](C(=O)N[C@@H](CC(N)=O)C(=O)N[C@@H](CO)C(=O)N[C@@H](Cc2ccccc2)C(=O)N[C@@H](CCCNC(=N)N)C(=O)N[C@@H](Cc2ccc(O)cc2)C(=O)O)NC(=O)CNC(=O)[C@H](CC(C)C)NC(=O)CNC(=O)[C@H](CO)NC(=O)[C@H](CCC(N)=O)NC(=O)[C@H](C)NC(=O)CNC1=O [ANF, reference compound]
hypotension ([1]; human, in vivo): became hypotensive

angiotensin II [reference compound]
inhibition of renal medullary Na+-K+-ATPase activity [2]: significant at P<0.01

H-SSDRSALLKSKLRALLTAPR-OH [proANF 79-98]
potassium excretion [3]: significant (P<0.05) | increase in urine volume (in words) [3]: significant | sodium excretion (in words) ([3]; listed as ProANF 79-98): does not have natriuretic effects in healthy humans | systolic and diastolic blood pressures [3]: significant | potassium excretion ([3]; listed as ProANF 79-98): strongest stimulator of potassium excretion of any of the atrial peptides; also recorded: significant (P<0.01) enhancer of potassium excretion | increase in urine flow ([3]; infusion): 2 fold | increase in cyclic GMP levels over baseline levels associated with vasodilation [4]: four-to-five fold | prostaglandin E2 (PGE2) synthesis [5]: increase prostaglandin E2 (PGE2) synthesis | hypotension ([1]; CHF patients): None became hypotensive | enhancement of sodium excretion [1]: 3 fold | increase of urine flow (maximal) ([1]; NYHA class III CHF, 100 ng/kg body weight/min i.v. for 60 minutes, P<0.001): 4 fold | effects in persons with CHF compared to healthy individuals ([1]; diuretic and natriuretic effects): not blunted in persons with CHF but rather are increased compared to healthy individuals | FENa, fractional excretion of sodium [6, 10]: 0.030 ± 0.024% | UNa, urinary sodium [6, 10]: 42.27 ± 24.68 meq/1 | UNaV, urinary sodium excretion rate [6, 10]: 90.88 ± 77.76 μeq · min^−1 · g kidney wt^−1 | V, urine flow rate [6, 10]: 2.62 ± 0.70 μl · min^−1 · g kidney wt^−1 | V, urine flow rate [6, 11]: 4.75 ± 1.57 μl · min^−1 · g kidney wt^−1 | FENa, fractional excretion of sodium [6, 12]: 0.200 ± 0.152% | UNa, urinary sodium [6, 12]: 63.30 ± 22.11 meq/1 | UNaV, urinary sodium excretion rate [6, 12]: 363.98 ± 261.85 μeq · min^−1 · g kidney wt^−1 | V, urine flow rate [6, 13]: 5.16 ± 1.04 μl · min^−1 · g kidney wt^−1 | FENa, fractional excretion of sodium [6, 14]: 0.368 ± 0.273% | UNa, urinary sodium [6, 14]: 92.53 ± 29.17 meq/1 | UNaV, urinary sodium excretion rate [6, 14]: 564.22 ± 315.48 μeq · min^−1 · g kidney wt^−1 | potassium excretion ([6]; rat clearance model): very significant stimulator of potassium excretion | sodium excretion (in words) ([6]; rat clearance model): does not significantly increase sodium excretion | particulate guanylate cyclase activity [7]: enhance | cyclic GMP levels in cultured smooth muscle cells [8]: increase cyclic GMP levels | concentration of maximal activation of guanylate cyclase activity [8]: about 1 μM | EC50 [8]: ~10 nM | inhibition of renal medullary Na+-K+-ATPase activity [2]: significant at P<0.01

H-NPMYNAVSNADLMDFKNLLDHLEEKMPLED-OH [proANF 1-30]
duration of sodium excreting effects compared to ANF [3]: significantly (P<0.001) prolonged compared to ANF | potassium excretion [3]: significant (P<0.05) | increase in urine volume (in words) [3]: significant | sodium excretion (in words) [3]: significantly (P<0.05) increased | systolic and diastolic blood pressures [3]: significant | duration of sodium excreting effects compared to ANF ([3]; listed as ProANF 1-30): last significantly (P<0.001) longer than ANF's effects | increase in cyclic GMP levels over baseline levels associated with vasodilation [4]: four-to-five fold | prostaglandin E2 (PGE2) synthesis [5]: increase prostaglandin E2 (PGE2) synthesis | increase of fractional excretion of sodium ([1]; CHF individuals): 3 fold | enhancement of sodium excretion [1]: three-to-eight fold | hypotension ([1]; human, in vivo): None became hypotensive | time after stopping infusion for which diuresis / urine flow is still significantly elevated (P<0.01) ([1]; humans with congestive heart failure, listed as Pro ANF's 1-30): ≥ 3 h | FENa, fractional excretion of sodium [6, 10]: 0.023 ± 0.002% | UNa, urinary sodium [6, 10]: 34.13 ± 10.98 meq/1 | UNaV, urinary sodium excretion rate [6, 10]: 36.37 ± 8.09 μeq · min^−1 · g kidney wt^−1 | V, urine flow rate [6, 10]: 1.83 ± 0.27 μl · min^−1 · g kidney wt^−1 | V, urine flow rate [6, 11]: 3.41 ± 0.48 μl · min^−1 · g kidney wt^−1 | FENa, fractional excretion of sodium [6, 12]: 0.241 ± 0.101% | UNa, urinary sodium [6, 12]: 64.83 ± 12.93 meq/1 | UNaV, urinary sodium excretion rate [6, 12]: 224.30 ± 60.34 μeq · min^−1 · g kidney wt^−1 | V, urine flow rate [6, 13]: 4.31 ± 0.84 μl · min^−1 · g kidney wt^−1 | FENa, fractional excretion of sodium [6, 14]: 0.285 ± 0.094% | UNa, urinary sodium [6, 14]: 89.50 ± 19.82 meq/1 | UNaV, urinary sodium excretion rate [6, 14]: 384.98 ± 124.39 μeq · min^−1 · g kidney wt^−1 | particulate guanylate cyclase activity [7]: enhance | cyclic GMP levels in cultured smooth muscle cells [8]: increase cyclic GMP levels | concentration of maximal activation of guanylate cyclase activity [8]: about 1 μM | EC50 [8]: ~10 nM | inhibition of renal medullary Na+-K+-ATPase activity [2]: significant at P<0.01

human atrial natriuretic factor (ANF) (peptide)
half maximal activation (ED50) of guanylate cyclase activity [9]: 10 nM

COc1ccc2cc([C@H](C)C(=O)O)ccc2c1 [Naproxen, reference compound]
blockade of the peptides' effects on renal medullary Na+-K+-ATPase ([2]; 0.5 mM): completely blocked

H-SSDRSALLKSKLRALLTAPR-OH [human pro-ANF 79-98]
half maximal activation (ED50) of guanylate cyclase activity [9]: 10 nM

H-EVVPPQVLSEPNEEAGAALSPLPEVPPWTGEVSPAQR-OH [human pro-ANF 31-67]
half maximal activation (ED50) of guanylate cyclase activity [9]: 10 nM

H-NPMYNAVSNADLMDFKNLLDHLEEKMPLED-OH [human pro-ANF 1-30]
half maximal activation (ED50) of guanylate cyclase activity [9]: 10 nM
